Measurements published in paper PMC6471485, “Selective Inhibitors of a Human Prolyl Hydroxylase (OGFOD1) Involved in Ribosomal Decoding” (Chemistry (Weinheim an Der Bergstrasse, Germany), 2019).

Assays:
OGFOD1 = molecular target: T1, OGFOD1 (Homo sapiens, UniProt Q8N543); assay: 2OG displacement from OGFOD1 by CPMG-edited 1H NMR; format: binding; settings: 10 µM 2OG, 10 µM OGFOD1, 70 µM inhibitor
T1 sequence (Q8N543 1-542): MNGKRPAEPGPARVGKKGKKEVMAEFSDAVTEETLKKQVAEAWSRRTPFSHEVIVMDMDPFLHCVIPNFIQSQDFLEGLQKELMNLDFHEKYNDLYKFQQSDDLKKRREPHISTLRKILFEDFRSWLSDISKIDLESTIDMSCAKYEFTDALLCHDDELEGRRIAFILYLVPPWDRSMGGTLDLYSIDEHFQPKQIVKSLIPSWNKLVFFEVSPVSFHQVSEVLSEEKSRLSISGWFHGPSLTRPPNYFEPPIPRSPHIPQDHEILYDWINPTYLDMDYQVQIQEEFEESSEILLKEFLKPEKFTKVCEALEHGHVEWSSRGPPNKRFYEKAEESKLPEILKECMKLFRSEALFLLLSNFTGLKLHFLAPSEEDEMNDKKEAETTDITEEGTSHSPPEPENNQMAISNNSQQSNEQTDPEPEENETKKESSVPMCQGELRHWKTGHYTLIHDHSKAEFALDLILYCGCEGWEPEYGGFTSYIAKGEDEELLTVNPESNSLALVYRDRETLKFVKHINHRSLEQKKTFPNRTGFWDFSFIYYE
Description: total echo time of 40 ms, a relaxation delay of 2 s, with 256 scans. Water suppression was achieved by presaturation. Samples contained 30 µM apo-PHD2181-426 or OGFOD1, supplemented with 60 µM Zn(II), 30 µM of inhibitor, all in 50 mM Tris-d11, pH 7.5, 10 % D2O, […]
wLOGSY Binding Experiments: For water-ligand observed gradient spectroscopy (wLOGSY) analyses, typical experimental parameters were the following: mixing time, 1 s; relaxation delay, 2 s; number of transients, 512. Solvent excitation was achieved using a 16-ms 180° selective rectangular shape pulse with 1,000 points (Squa100.1000) set at the H2O frequency. […]
Competition Experiments by 2OG Displacement: 2OG displacement assays[12] were performed using CPMG-edited 1H spectra. […] The 2OG methylene resonance at 2.35 ppm was monitored. […]
HeLa cells were cultured in DMEM media supplemented with 10 % fetal bovine serum, 4 mM L-glutamine, 100 U/mL penicillin, and 100 µg/mL streptomycin. […] Cell extracts were analyzed by SDS-PAGE, electroblotted onto PVDF membranes (Millipore) and probed with anti-HIF-1α antibody (clone 54, BD Transduction Laboratories) at 1:1000 dilution for 1 h at room temperature. […] Target proteins were detected with SuperSignal Chemiluminescent […]
Figure S15. Single-concentration qualitative 2OG displacement as monitored by CPMG-edited 1H NMR spectroscopy. […]

Tpa1p = Tpa1p (Saccharomyces cerevisiae, UniProt P40032); assay: Tpa1p inhibition assay (Figure S12); format: biochemical; settings: Tpa1p 2 µM (Figure S12)
Ofd1 = molecular target: T2, Ofd1 (Schizosaccharomyces pombe, UniProt Q11120); assay: Ofd1 inhibition assay (Figure S12); format: biochemical, yeast; settings: Ofd1 1 µM (Figure S12)
T2 sequence (Q11120 1-515): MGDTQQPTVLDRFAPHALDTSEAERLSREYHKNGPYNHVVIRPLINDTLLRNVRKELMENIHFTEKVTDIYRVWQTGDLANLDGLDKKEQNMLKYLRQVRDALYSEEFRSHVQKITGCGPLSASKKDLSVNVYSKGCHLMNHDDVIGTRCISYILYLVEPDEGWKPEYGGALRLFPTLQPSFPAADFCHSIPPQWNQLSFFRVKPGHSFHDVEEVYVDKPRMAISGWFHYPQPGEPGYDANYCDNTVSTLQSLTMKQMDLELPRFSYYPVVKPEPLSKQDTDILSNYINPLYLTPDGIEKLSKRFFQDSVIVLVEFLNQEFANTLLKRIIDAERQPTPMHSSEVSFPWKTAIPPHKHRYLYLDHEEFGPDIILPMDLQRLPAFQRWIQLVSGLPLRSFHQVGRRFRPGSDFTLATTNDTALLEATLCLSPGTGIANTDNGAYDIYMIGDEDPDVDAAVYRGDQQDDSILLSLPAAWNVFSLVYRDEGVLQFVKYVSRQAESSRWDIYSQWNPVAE

Chain of Tpa1p (P40032 whole entry): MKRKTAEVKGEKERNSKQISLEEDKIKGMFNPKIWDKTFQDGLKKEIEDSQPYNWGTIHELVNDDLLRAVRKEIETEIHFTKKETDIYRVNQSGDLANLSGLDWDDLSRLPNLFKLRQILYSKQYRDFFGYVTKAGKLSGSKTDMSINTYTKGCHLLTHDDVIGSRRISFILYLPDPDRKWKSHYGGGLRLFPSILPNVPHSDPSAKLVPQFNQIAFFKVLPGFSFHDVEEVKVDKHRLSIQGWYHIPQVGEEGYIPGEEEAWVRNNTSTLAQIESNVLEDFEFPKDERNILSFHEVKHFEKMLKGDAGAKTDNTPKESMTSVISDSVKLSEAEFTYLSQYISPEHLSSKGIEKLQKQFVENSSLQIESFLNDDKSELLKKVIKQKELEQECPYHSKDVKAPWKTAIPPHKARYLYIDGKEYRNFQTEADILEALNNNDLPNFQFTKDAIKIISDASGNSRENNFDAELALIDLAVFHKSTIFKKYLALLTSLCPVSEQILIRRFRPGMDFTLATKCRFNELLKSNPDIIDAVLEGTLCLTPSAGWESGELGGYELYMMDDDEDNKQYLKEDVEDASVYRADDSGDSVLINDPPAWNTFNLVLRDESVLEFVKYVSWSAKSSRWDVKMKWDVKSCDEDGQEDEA

Row | SMILES | displacement of bound 2OG from OGFOD1, in words (OGFOD1) | inhibition of Tpa1p, in words (Tpa1p) | inhibition of Ofd1, in words (Ofd1) | melting point [°C]
1 | Cn1c(O)c(C(=O)CCc2ccccc2)c(=O)n(C)c1=O [compound 26] | capable of displacing bound 2OG from the active site of OGFOD1 | potently inhibit | potently inhibit | –
2 | Cn1c(O)c(C(=O)CCc2cccs2)c(=O)n(C)c1=O [compound 42] | capable of displacing bound 2OG from the active site of OGFOD1 | potently inhibit | potently inhibit | 91
